In patent US12351588B2, “Salt forms and solvates of Mcl-1 antagonists” (AMGEN INC., priority 2022, dated 2025):
Counter-ions that a name gives are not always drawn.

What was measured:
[1] = Solubility of AMG 176 Form 1 in water under neutral conditions; assay type: physicochemical
[2] = Moisture sorption (DVS, VTI vapor sorption analyzer); assay type: physicochemical; conditions: for weight gain (moisture sorption profile): by 95% relative humidity, 25° C.
Description: Moisture Sorption: Moisture sorption data was collected at 25° C. using a VTI vapor sorption analyzer. A sample size of approximately 4-10 mg was used in a standard platinum pan. Hygroscopicity was evaluated from 5 to 95% RH in increments of 5% RH. Data for adsorption and desorption cycles were collected. Equilibrium criteria were set at 0.001% weight change in 10 minute with a maximum equilibration time of 180 minutes.

SMILES	solubility [1]	weight gain (moisture sorption profile) [2]	fate of the sorbed weight gain upon desorption ([2]; desorption after sorption to 95% relative humidity)
CO[C@H]1/C=C/C[C@H](C)[C@@H](C)S(=O)(=O)NC(=O)c2ccc3c(c2)N(C[C@@H]2CC[C@H]21)C[C@@]1(CCCc2cc(Cl)ccc21)CO3 [AMG 176 Form 1]	< 0.1 µg/mL		
CO[C@H]1/C=C/C[C@H](C)[C@@H](C)S(=O)(=O)NC(=O)c2ccc3c(c2)N(C[C@@H]2CC[C@H]21)C[C@@]1(CCCc2cc(Cl)ccc21)CO3 [crystalline ammonium salt form of AMG 176]		about 1.2%	
CO[C@H]1/C=C/C[C@H](C)[C@@H](C)S(=O)(=O)NC(=O)c2ccc3c(c2)N(C[C@@H]2CC[C@H]21)C[C@@]1(CCCc2cc(Cl)ccc21)CO3 [crystalline potassium salt hydrate form of AMG 176]		about 5%	lost upon desorption
